# Test results from patent US20100016213A1, “USE OF A DITERPENOID COMPOUND FOR TREATING DIABETES” (National Taiwan University, priority 2008, published 2010).
# Experiments:
# Assay type in all cases: in vivo
# [1] = system: DIO-induced diabetic mice; assay: Lowering plasma glucose level, intraperitoneal injection, diet-induced obesity diabetic mice (type II diabetes model); details: one hour after administration
# Experimental: Normal and diet-induced obesity diabetic mice (“DIO-induced diabetic mice) were administered with borapetoside A (5.0 mg/kg), borapetoside C (5.0 mg/kg), glibenclamide (5.0 mg/kg), metformin (500.0 mg/kg), or a vehicle control via intraperitoneal injection. DIO-induced diabetic mice are a well-known mouse model of type II diabetes (non-insulin dependent). See Liu et al., J Mol. Endocrinol. 2008.
# The plasma glucose levels of the treated mice were determined before and one hour after administration. The activities of these compounds for lowering plasma glucose levels were calculated as described above.
# Borapetoside C was administered to DIO-induced diabetic mice at 0.1, 1.0, 3.0, and 5.0 mg/kg and the plasma glucose levels were examined before and after administration. The basal plasma glucose concentration in diet-induced diabetic mice (untreated) was 174.6±7.7 mg/dL. One hour after treatment, the plasma glucose levels in mice treated with vehicle control, 0.1 mg/kg borapetoside C, 1.0 mg/kg borapetoside C, 3.0 mg/kg borapetoside C, and 5.0 mg/kg borapetoside C were 172.5±10.9 mg/dL, 170.5±6.8 mg/dL, 127.9±6.0 mg/dL, 121.3±4.3 mg/dL and 119.9±4.6 mg/dL, respectively.
# [2] = system: Diet-induced diabetic (NIDDM) mice; assay: Plasma insulin levels before and after treatment (Insulin ELISA), diet-induced diabetic mice; details: 5.0 mg/kg i.p.; for Plasma insulin, Pre-treatment: before treatment; for Plasma insulin, post-treatment: one hour after treatment
# Experimental: (§1) Normal mice, STZ-induced diabetic mice, and diet-induced diabetic mice were administered with a vehicle control, borapetoside A (5.0 mg/kg), borapetoside C (at various doses), glibenclamide (5.0 mg/kg) or metformin (500 mg/kg) by intraperitoneal injection. These mice were examined for their blood insulin levels before and one hour after treatment, using the Insulin(Rat) ELISA kit obtained from Penisula Lab. Inc., San Carlos, Calif., USA.
# normal mice [3] = assay: Plasma insulin levels before and after treatment (Insulin ELISA), normal mice; details: 5.0 mg/kg i.p.; for Plasma insulin, Pre-treatment: before treatment; for Plasma insulin, post-treatment: one hour after treatment
# Experimental: as §1
# normal mice [4] = assay: Lowering plasma glucose level, intraperitoneal injection, normal mice; details: normal mice, one hour after administration
# Experimental: (§2) Normal and streptozotocin (STZ)-induced diabetic mice were administered with borapetoside A (5.0 mg/kg), borapetoside C (5.0 mg/kg), glibenclamide (5.0 mg/kg), metformin (500.0 mg/kg), or a vehicle control via intraperitoneal injection. STZ-induced diabetic mice are a well-known mouse model of type I diabetes (insulin dependent). See, e.g., Liu I M, et al., Neuroscience Letters 2001; 307: 81-84. Glibenclamide and metformin serve as two positive controls in this study.
# (§3) The plasma glucose levels of the treated mice were determined before and one hour after administration. The activity of lowering plasma glucose levels (AL) is calculated following the formula: […]
# (§4) Borapetoside C was administered to normal mice at 0.1, 1.0, 3.0, and 5.0 mg/kg and to STZ-diabetic mice at 0.1, 1.0, 3.0, and 5.0 mg/kg. The plasma glucose levels of the treated mice were examined before and after treatment.
# [5] = system: STZ-induced diabetic mice; assay: Lowering plasma glucose level, intraperitoneal injection, STZ-induced diabetic mice (type I diabetes model); details: one hour after administration
# Experimental: as §2, §3, §4
# STZ-diabetic mice (IDDM) [6] = assay: Plasma insulin levels before and after treatment (Insulin ELISA), STZ-diabetic mice; details: for Plasma insulin, Pre-treatment: before treatment; for Plasma insulin, post-treatment: one hour after treatment
# Experimental: as §1
# normal mice [7] = assay: Lowering plasma glucose levels via oral administration, normal mice; details: oral 10.0 mg/kg, sixty minutes after treatment, mean ± SEM, six animals
# Experimental: (§5) Normal, STZ-induced diabetic mice, and diet-induced diabetic mice were administered orally with 10.0 mg/kg borapetoside C, glibenclamide or metformin as a positive control, and a vehicle control. The plasma glucose levels of the treated mice were determined before and sixty minutes after treatment and the results thus obtained were shown in Table 3 below.
# [8] = system: DIO-induced diabetic mice; assay: Intraperitoneal glucose tolerance test (IPGTT), DIO-induced diabetic mice; details: diet-induced diabetic mice, borapetoside C 5.0 mg/kg
# Experimental: (§6) Normal ICR mice and DIO-induced diabetic mice, treated with borapetoside C (5.0 mg/kg), a vehicle control, or glibenclamide (positive control), were subjected to an intraperitoneal glucose tolerance test (IPGTT) as described in Lamont et al., Diabetes 2008; 57: 190-198. More specifically, glucose (2.0 mg/g body weight) was administered via IP injection to normal and DIO mice and blood samples were drawn from the treated mice before and 30, 60, 120, and 150 min after glucose administration for examination of glucose levels.
# In diet-induced diabetic mice treated with borapetoside C, the vehicle control, and glibenclamide, the basal plasma glucose concentrations were 181.6±12.3 mg/dL, 183.1±2.9 mg/dL, and 185.3±7.7 mg/dL, respectively. Thirty minutes after intraperitoneal glucose injection, the plasma glucose concentration was elevated to 405.6±8.9 mg/dL in vehicle-treated mice, to 343.5±11.2 mg/dL in borapetoside C-treated mice, or to 339.1±15.4 mg/dL in glibenclamide-treated mice.
# [9] = system: Diet-induced diabetic mice (NIDDM); assay: Lowering plasma glucose levels via oral administration, diet-induced diabetic mice; details: oral 10.0 mg/kg, sixty minutes after treatment, mean ± SEM, six animals
# Experimental: as §5
# Normal ICR mice = assay: Intraperitoneal glucose tolerance test (IPGTT), normal ICR mice; details: borapetoside C 5.0 mg/kg
# Experimental: as §6
# In normal mice treated with borapetoside C, the vehicle control, and glibenclamide, the basal plasma glucose concentrations were 106.8±4.7 mg/dL, 114.7±4.6 mg/dL, and 104.9±3.1 mg/dL, respectively. Thirty minutes after intraperitoneal glucose injection, the plasma glucose concentration was elevated to 346.2±14.7 mg/dL in vehicle-treated mice, to 292.9±10.9 mg/dL in borapetoside C-treated mice, or to 273.4±13.6 mg/dL in glibenclamide-treated mice.
# STZ-diabetic mice (IDDM) [10] = assay: Lowering plasma glucose levels via oral administration, STZ-diabetic mice; details: oral 500.0 mg/kg, sixty minutes after treatment, mean ± SEM, six animals
# Experimental: as §5
# [11] = system: DIO-induced diabetic mice(NIDDM); assay: Glycogen content in skeletal muscle, DIO-induced diabetic mice; details: 30 minutes after injection
# Experimental: (§7) Normal, STZ-induced diabetic, and DIO-induced diabetic mice were intraeritoneally injected with borapetoside C (5 mg/kg) and Actrapid (0.5 IU/kg; a short-acting insulin provided by Novo Nordisk) or metformin (500 mg/kg). Their glycogen contents in skeletal muscle were determined 30 minutes after injections.
# [12] = system: STZ-induced diabetic mice; assay: Insulin sensitivity: plasma glucose reduction with insulin plus borapetoside C or vehicle, STZ-induced diabetic mice; details: thirty minutes after insulin
# Experimental: (§8) The effect of borapetoside C on insulin sensitivity was tested following the method described in Liu, et al., Clinical and Experimental Pharmacology and Physiology 2005; 32: 649-654. Normal mice (n=6), STZ-induced diabetic mice (n=5), and DIO-induced diabetic mice (n=7) were treated with insulin at various doses (i.e., 0.1 IU/kg, 0.5 IU/kg, and 1.0 IU/kg) together with either borapetoside C (0.1 mg/kg) or a vehicle control. Their plasma glucose levels were examined before and thirty minutes after insulin administration. The activity of lowering plasma glucose levels (AL) was calculated following the formula described in Example 2 above.
# normal mice [13] = assay: Glycogen content in skeletal muscle, normal mice; details: 0.5 IU/kg i.p., 30 minutes after injection
# Experimental: as §7
# [14] = system: DIO-induced diabetic mice; assay: Insulin sensitivity: plasma glucose reduction with insulin plus borapetoside C or vehicle, DIO-induced diabetic mice; details: thirty minutes after insulin
# Experimental: as §8
# STZ-diabetic mice(IDDM) = assay: Glycogen content in skeletal muscle, STZ-diabetic mice; details: 0.5 IU/kg i.p., 30 minutes after injection
# Experimental: as §7
# normal mice [15] = assay: Insulin sensitivity: plasma glucose reduction with insulin plus borapetoside C or vehicle, normal mice; details: thirty minutes after insulin
# Experimental: as §8
# [16] = system: liver phosphoenolpyruvate carboxykinase (PEPCK); assay: Liver PEPCK levels by western blot in STZ-induced mice; details: borapetoside C 5.0 mg/kg, twice per day for 7 days, insulin dose not given
# Experimental: To characterize the effect of borapetoside C on liver glucose utilization, levels of liver phosphoenolpyruvate carboxykinase (PEPCK) were examined by western blot analysis in STZ-induced mice treated with borapetoside C (5.0 mg/kg, twice per day for 7 days), insulin, or a vehicle control.
# [17] = 5.0 mg/kg intraperitoneal injection
# [18] = 500.0 mg/kg intraperitoneal injection
# [19] = Insulin 0.1 IU/kg together with Vehicle
# [20] = Insulin 0.5 IU/kg together with Vehicle
# [21] = Insulin 1.0 IU/kg together with Vehicle
molecule,measurement,setting,value
C[C@@]12C[C@@H](c3ccoc3)OC(=O)[C@@H]1C[C@@H]1OC(=O)[C@@]3(O)[C@@H](O[C@@H]4O[C@H](CO)[C@@H](O)[C@H](O)[C@H]4O)CC[C@@H]2[C@@]13C [borapetoside A],AL (activity of lowering plasma glucose levels),[1]; [17],29.7±6.1%
same,"Plasma insulin, Pre-treatment",[2],106.6 ± 14.6 pmol/L
same,"Plasma insulin, post-treatment",[2],173.8 ± 26.9 pmol/L
same,"Plasma insulin, Pre-treatment",normal mice [3],56.0 ± 2.8 pmol/L
same,"Plasma insulin, post-treatment",normal mice [3],117.6 ± 10.8 pmol/L
same,Activities of Lowering Plasma Glucose Levels (AL),normal mice [4]; [17],49.4 ± 4.8%
same,Activities of Lowering Plasma Glucose Levels (AL),[5]; [17],54.3 ± 6.3%
same,"Plasma insulin, Pre-treatment",STZ-diabetic mice (IDDM) [6]; 5.0 mg/kg i.p.,16.0 ± 4.1 pmol/L
same,"Plasma insulin, post-treatment",STZ-diabetic mice (IDDM) [6]; 5.0 mg/kg i.p.,18.7 ± 8.4 pmol/L
"COc1ccc(Cl)cc1C(=O)NCCc1ccc(S(=O)(=O)NC(=O)NC2CCCCC2)cc1 [glibenclamide, reference compound]",AL (activity of lowering plasma glucose levels),[1]; [17],25.8±2.1%
same,"Plasma insulin, Pre-treatment",[2],119.3 ± 9.6 pmol/L
same,"Plasma insulin, post-treatment",[2],197.0 ± 18.8 pmol/L
same,"Plasma insulin, Pre-treatment",normal mice [3],50.8 ± 3.6 pmol/L
same,"Plasma insulin, post-treatment",normal mice [3],149.5 ± 15.0 pmol/L
same,Activities of Lowering Plasma Glucose Levels (AL),normal mice [4]; [17],19.3 ± 1.6%
same,Activity of lowing plasma glucose levels (%),normal mice [7],25.9 ± 3.5 %
same,Activities of Lowering Plasma Glucose Levels (AL),[5]; [17],3.2 ± 1.9%
same,basal plasma glucose concentration (IPGTT),[8]; before glucose injection,185.3 ± 7.7 mg/dL
same,plasma glucose concentration thirty minutes after intraperitoneal glucose injection (IPGTT),"[8]; glucose 2.0 mg/g body weight IP, vehicle 405.6±8.9",339.1 ± 15.4 mg/dL
same,Activity of lowing plasma glucose levels (%),[9],34.9 ± 4.0 %
same,basal plasma glucose concentration (IPGTT),Normal ICR mice; before glucose injection,104.9 ± 3.1 mg/dL
same,plasma glucose concentration thirty minutes after intraperitoneal glucose injection (IPGTT),"Normal ICR mice; glucose 2.0 mg/g body weight IP, vehicle 346.2±14.7",273.4 ± 13.6 mg/dL
"CN(C)C(=N)N=C(N)N [metformin, reference compound]",Activity of lowing plasma glucose levels (%),STZ-diabetic mice (IDDM) [10],18.1 ± 1.9 %
same,AL (activity of lowering plasma glucose levels),[1]; [18],30.7±0.6%
same,Activities of Lowering Plasma Glucose Levels (AL),normal mice [4]; [18],20.0 ± 2.5%
same,Activities of Lowering Plasma Glucose Levels (AL),[5]; intraperitoneal injection,34.1 ± 5.5%
same,"Plasma insulin, post-treatment",STZ-diabetic mice (IDDM) [6]; 500 mg/kg i.p.,15.1 ± 1.5 pmol/L
same,"Plasma insulin, Pre-treatment",STZ-diabetic mice (IDDM) [6],13.5 ± 1.1 pmol/L
same,Glycogen content (μmol/g wet weight),[11]; 500 mg/kg i.p.,23.5 ± 0.9 μmol/g wet weight
"Insulin: Actrapid, a short-acting insulin provided by Novo Nordisk [reference compound]",AL (%),[12]; [19],8.7 ± 1.6%
same,AL (%),[12]; [20],11.5 ± 0.6%
same,AL (%),[12]; [21],24.0 ± 1.3%
same,Glycogen content (μmol/g wet weight),normal mice [13],30.2 ± 2.0 μmol/g wet weight
same,AL (%),[14]; [19],19.5 ± 1.5%
same,AL (%),[14]; [20],27.5 ± 2.6%
same,AL (%),[14]; [21],32.0 ± 1.1%
same,Glycogen content (μmol/g wet weight),STZ-diabetic mice(IDDM),30.0 ± 1.0 μmol/g wet weight
same,AL (%),normal mice [15]; [19],14.6 ± 0.8%
same,AL (%),normal mice [15]; [20],37.5 ± 1.1%
same,AL (%),normal mice [15]; [21],56.8 ± 1.9%
same,liver PEPCK levels versus vehicle control-treated mice (western blot),[16],much lower
same,Glycogen content (μmol/g wet weight),[11]; 0.5 IU/kg i.p.,20.2 ± 0.6 μmol/g wet weight
